From patent US4749710A, “Immunosuppressive agents” (priority 1985, dated 1988)

Tests used:
[1] = test system: IgM production by human lymphocytes; test: Inhibition of IgM production by human lymphocytes in vitro (SAC activation, ELISA); format: cell-based; conditions: 8 days, vehicle control 2.49 ± 0.17
Description: (§1) General Test Description Humoral immunity comprises one of the two major arms of the immune system and generally is beneficial. However, a number of disease states are characterized by a hyperactive immune system responding to self tissue antigens. […] In these diseases it would be important to suppress the humoral immune system.
(§2) In the following studies we used established methods to examine the effect of Vitamin D derivatives on the in vitro production of immunoglobulin (Ig) by human peripheral blood leukocytes (PBL) following polyclonal activation. Immunoglobulin was induced from PBL by co-culturing the PBL with the polyclonal B cell activator Staphylococcus aureus strain Cowan I (SAC) for a period of 8 days. The quantity of Ig produced in the culture supernatants was determined by using an enzyme linked immunosorbent assay (ELISA). The effect of Vitamin D derivatives was determined by comparing the amount of antibody produced in cultures containing Vitamin D derivatives to those cultures containing an appropriate concentration of vehicle (ethanol).
(§3) Solutions of vitamin D derivatives. Stock solutions of vitamin D derivatives were prepared as described previously for the murine CTL experiments.
(§4) INDUCTION OF HUMAN IG SECRETION Human peripheral blood mononuclear leukocytes were prepared from one day old buffy coat preparations obtained from the American Red Cross (Lansing, MI). […] Twenty five ml of this preparation were overlayed onto 25 ml of Ficoll-Paque contained in a 50 ml polypropylene centrifuge tube. After centrifugation at 400×g at 15° C. for 40 min, the cells at the interface of the medium and Ficoll were removed and washed 3 times in 50 ml RPMI medium and centrifuged at 300×g for 10 minutes. After the final centrifugation,the cell pellet was suspended in RPMI medium containing 20% fetal bovine serum (FBS) and 80 μg/ml gentamicin. The number of viable cells was determined by trypan blue exclusion and were then suspended to 2.5×10^6 viable cells per ml in RPMI containing 20% FBS and gentamicin. Human PBL were induced to secrete Ig as follows. One hundred microliters of the PBL suspension and an additional 100 μl of a 1:20,000 (v/v) preparation of SAC suspended in RPMI containing 1% FBS were added to each well of a 96-well microtiter plate. Selected wells were also set up without the addition of SAC to serve as negative controls (spontaneous Ig secretion). Each well then received 20 μl of either the appropriate dilution of Vitamin D derivative in RPMI with 1% ethanol or RPMI with 1% ethanol (vehicle control). The vitamin D derivatives were tested at final concentrations of 10^-5, 10^-6, 10^-7, 10^-8, 10^-9, and 10^-10 M and in all cases the vehicle (ethanol) concentration was 0.1%. All treatments were performed in triplicate. […] The samples were then either assayed immediately or stored at -20° C. until assayed by the ELISA technique described below.
(§5) QUANTITATION OF SECRETED IG (ELISA ASSAY) ELISA plates were prepared for quantitating human IgG and IgM levels in culture supernatants as follows. Affinity purified sheep anti-human IgG and goat anti-human IgM (Cappel, Cochranville, PA) were diluted 1:250 and 1:400 respectively, in carbonate coating buffer (0.05M sodium bicarbonate, 0.05M sodium carbonate, 0.15M sodium chloride). One hundred and fifty microliters of the antibody preparation were added to each well of a 96 well ELISA plate (EIA, Costar). The plates were sealed and incubated overnight at 4° C. and on the following day were washed 3 times with distilled water. Each well then received 350 μl of Dulbecco's PBS containing 1 mg/ml bovine serum albumin (BSA) and 0.5 mg/ml sodium azide. The plates were allowed to incubate for 1 hour at 37° C. and then washed 3 times with Dulbecco's PBS containing 0.5% stock Tween 20 (PBS-Tween) followed by 2 washes with distilled water. The plates were air dried and stored desiccated under a vacuum at 4° C. until use.

[2] = test system: IgG production by human lymphocytes; test: Inhibition of IgG production by human lymphocytes in vitro (SAC activation, ELISA); format: cell-based; conditions: 8 days, vehicle control 0.78 ± 0.09
Description: as §1, §2, §3, §4, §5

Question: Which results are given for `C=C1/C(=C\C=C2/CCC[C@]3(C)[C@@H]([C@H](C)CCCC(C)(C)O)CC[C@@H]23)C[C@@H](O)C[C@@H]1F` [1α-F--25-OH--D3, 1α-Fluoro-25-hydroxycholecalciferol]?
Answer: IgM μg per culture (x ± S.E.M.) ([1]; 1 × 10^-6 molar): undetectable; IgM μg per culture (x ± S.E.M.) ([1]; 1 × 10^-7 molar): 0.38 ± 0.30 μg per culture; IgM μg per culture (x ± S.E.M.) ([1]; 1 × 10^-8 molar): 1.83 ± 0.29 μg per culture; IgM μg per culture (x ± S.E.M.) ([1]; 1 × 10^-9 molar): 3.10 ± 0.10 μg per culture; IgM μg per culture (x ± S.E.M.) ([1]; 1 × 10^-10 molar): 4.48 ± 0.75 μg per culture; IgG μg per culture (x ± S.E.M.) ([2]; 1 × 10^-6 molar): undetectable; IgG μg per culture (x ± S.E.M.) ([2]; 1 × 10^-7 molar): 0.08 ± 0.05 μg per culture; IgG μg per culture (x ± S.E.M.) ([2]; 1 × 10^-8 molar): 0.14 ± 0.05 μg per culture; IgG μg per culture (x ± S.E.M.) ([2]; 1 × 10^-9 molar): 0.18 ± 0.001 μg per culture; IgG μg per culture (x ± S.E.M.) ([2]; 1 × 10^-10 molar): 0.45 ± 0.11 μg per culture
